From US20240279302A1, “OLFACTORY RECEPTOR EXPRESSING METHOD AND RESPONSE MEASUREMENT METHOD” (Kao Corporation, priority 2021, published 2024)

How the values were obtained:
Test in all cases: Luciferase assay, sulfur compounds
Assay type in all cases: cell-based
[1] = target: T1, consensus OR12D3 (Homo sapiens, UniProt Q9UGF7, A145V/C216Y/C85S/G168H/G17S/G27V/H163R/I149T/M273V/M276I/M298L/M46I/M7V/S165N/S188G/S42A/S70C/S86T/V219I/V48I/V84L/Y177C); conditions: in the presence of a copper ion
T1 construct: expressed in transfected cells; host or cells: HEK293
T1 sequence (Q9UGF7 1-315 M7V/G17S/G27V/S42A/M46I/V48I/S70C/V84L/C85S/S86T/A145V/I149T/H163R/S165N/G168H/Y177C/S188G/C216Y/V219I/M273V/M276I/M298L): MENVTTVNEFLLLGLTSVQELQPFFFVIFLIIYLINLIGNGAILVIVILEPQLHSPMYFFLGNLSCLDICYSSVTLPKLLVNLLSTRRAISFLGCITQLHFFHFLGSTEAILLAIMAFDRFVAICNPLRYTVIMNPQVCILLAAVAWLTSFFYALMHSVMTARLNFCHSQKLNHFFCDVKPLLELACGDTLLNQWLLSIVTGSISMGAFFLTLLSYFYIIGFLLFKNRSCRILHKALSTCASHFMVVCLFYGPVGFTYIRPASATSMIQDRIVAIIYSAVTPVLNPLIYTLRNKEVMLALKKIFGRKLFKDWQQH
Procedure: (§1) A reaction solution as to each consensus olfactory receptor prepared in Examples described above was prepared according to the composition shown in Table 4, left standing for 20 minutes in a clean bench, and then added to each well of a 96-well plate (Becton, Dickinson and Company). The original olfactory receptor was used as to OR4S2. Composition shown in Table 20 was used as to OR11H2 and OR4E2. Subsequently, 100 μL of HEK293 cells suspended in DMEM (Nacalai Tesque, Inc.) was inoculated at 2×10^5 cells/cm^2 to each well, and cultured for 24 hours in an incubator kept at 37° C. and 5% CO2. Cells expressing no olfactory receptor (Mock) were provided as a control.
(§2) The medium was removed from the cultures prepared in 1), and 75 μL of a test substance solution (methyl mercaptan (MeSH) (CAS: 74-93-1, Tokyo Chemical Industry Co., Ltd.), dimethyl sulfide (DMS) (CAS: 75-18-3, FUJIFILM Wako Pure Chemical Corp.), dimethyl disulfide (DMDS) (CAS: 624-92-0, Tokyo Chemical Industry Co., Ltd.), concentration range: 0 μM, 1 μM, 3 μM, 10 μM, 30 μM, 100 μM, and 300 μM, or dimethyl trisulfide (DMTS) (CAS: 3658-80-8, Tokyo Chemical Industry Co., Ltd.), concentration range: 0 μM, 0.1 μM, 0.3 μM, 1 μM, 3 μM, 10 μM, and 30 μM) prepared with a fresh medium was added thereto. Under a copper ion addition condition, the test substance solution was adjusted to contain 30 μM copper(II) chloride (FUJIFILM Wako Pure Chemical Corp.) in addition to the odorant. The cells were cultured for 4 hours in a CO2 incubator and the luciferase gene was expressed sufficiently in the cells. Luciferase activity was measured using Dual-Glo™ luciferase assay system (Promega Corp.) in accordance with the operation manual of the product. A luminescence value derived from firefly luciferase induced by test substance stimulation in each well of the 96-well plate was divided by a luminescence value derived from Renilla luciferase to calculate a value (fluc/hRluc) as a signal, which was then used in analysis. The signal under each transfection condition was normalized with the signal value (fluc/hRluc) under an odorant stimulation-free condition defined as 0% and the signal value (fluc/hRluc) by stimulation with 10 μM forskolin defined as 100%, and used as a response (%) in analysis.

[2] = target: T2, consensus OR2T1 (Homo sapiens, UniProt O43869, C277R/D138G/I77L/L118F/L265I/L324F/N134D/Q276H/S299T)
T2 construct: expressed in transfected cells; host or cells: HEK293
T2 sequence (O43869 52-369 I77L/L118F/N134D/D138G/L265I/Q276H/C277R/S299T/L324F): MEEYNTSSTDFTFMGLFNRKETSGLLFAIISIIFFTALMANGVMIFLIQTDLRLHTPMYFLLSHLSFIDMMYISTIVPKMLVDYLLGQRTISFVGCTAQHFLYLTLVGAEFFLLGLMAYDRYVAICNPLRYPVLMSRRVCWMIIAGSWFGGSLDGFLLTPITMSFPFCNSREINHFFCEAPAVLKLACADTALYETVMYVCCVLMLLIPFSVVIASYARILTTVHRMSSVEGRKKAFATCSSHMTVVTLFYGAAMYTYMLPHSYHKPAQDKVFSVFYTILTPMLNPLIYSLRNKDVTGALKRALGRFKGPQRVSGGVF
Procedure: as §1, §2

[3] = target: T3, consensus OR2T4 (Homo sapiens, UniProt Q8NH00, A104M/A342V/C83S/E340G/F135L/G202R/G259R/I245V/L252F/L277M/L47V/N218K/R201C/S177A/T338N/V244T/V317L)
T3 construct: expressed in transfected cells; host or cells: HEK293
T3 sequence (Q8NH00 with tags, fused parts or gaps L47V/C83S/A104M/F135L/S177A/R201C/G202R/N218K/V244T/I245V/L252F/G259R/L277M/V317L/T338N/E340G/A342V): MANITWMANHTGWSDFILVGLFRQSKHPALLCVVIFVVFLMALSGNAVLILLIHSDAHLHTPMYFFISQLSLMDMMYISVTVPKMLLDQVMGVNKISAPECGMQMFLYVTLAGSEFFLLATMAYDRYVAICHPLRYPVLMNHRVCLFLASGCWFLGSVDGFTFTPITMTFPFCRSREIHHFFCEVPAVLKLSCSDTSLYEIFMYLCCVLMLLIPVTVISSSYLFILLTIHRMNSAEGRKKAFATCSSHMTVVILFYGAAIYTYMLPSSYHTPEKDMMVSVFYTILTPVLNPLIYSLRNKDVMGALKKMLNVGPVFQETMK
Procedure: as §1, §2

[4] = target: T4, consensus OR4C15 (Homo sapiens, UniProt Q8NGM1, A218G/A270V/E23K/G63A/I200A/I247V/I275T/L152F/L222F/L266F/M197L/N174D/N209I/N278T/Q295N/R137W/R299K/T258A/T88R/V55G/V87E/W233R)
T4 construct: Flag (N); Rho tag (N); expressed in transfected cells; host or cells: HEK293
Procedure: as §1, §2

[5] = in the presence of a copper ion

T4 sequence (Q8NGM1 1-311 with the stated changes limits assumed): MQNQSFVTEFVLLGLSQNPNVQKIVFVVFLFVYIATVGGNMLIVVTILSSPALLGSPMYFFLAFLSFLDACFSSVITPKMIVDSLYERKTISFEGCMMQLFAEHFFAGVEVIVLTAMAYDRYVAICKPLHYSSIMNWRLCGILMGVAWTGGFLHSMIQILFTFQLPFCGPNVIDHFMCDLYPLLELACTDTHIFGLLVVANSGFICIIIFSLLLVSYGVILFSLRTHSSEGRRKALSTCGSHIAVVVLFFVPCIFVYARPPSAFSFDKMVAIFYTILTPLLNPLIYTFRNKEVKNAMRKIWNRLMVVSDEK

For `CSSC` [dimethyl disulfide], the “response of consensus OR12D3” value [1] was “responded”, the “response of consensus OR2T1” value [2, 5] was “responded” and the “response of consensus OR2T4” value [3, 5] was “responded”. For the same molecule, the EC50 [4] was 615 µM, the “dose dependence of the response of consensus OR4C15” value [4, 5] was “dose-dependent response” and the “response of consensus OR4C15” value [4, 5] was “responded”.

For `CSSSC` [dimethyl trisulfide], the “response of consensus OR12D3” value [1] was “responded”, the “response of consensus OR2T1” value [2, 5] was “responded” and the “response of consensus OR2T4” value [3, 5] was “responded”. The “response of consensus OR4C15” value [4, 5] was “responded”.

With `CS` [methyl mercaptan] the “response of consensus OR12D3” value [1] was “responded”, the EC50 [2] was 33 µM and the “dose dependence of the response of consensus OR2T1” value [2, 5] was “dose-dependent response”. For the same molecule, the “response of consensus OR2T1” value [2, 5] was “responded”, the EC50 [3] was 340 µM and the “dose dependence of the response of consensus OR2T4” value [3, 5] was “dose-dependent response”. The “response of consensus OR2T4” value [3, 5] was “responded” and the “response of consensus OR4C15” value [4, 5] was “responded”.
